Results on 24 compounds are retold here after patent US7618985B2 (N.V. Organon, priority 2005, dated 2009).

In the first experiment the target is recombinant human ROCK-1 (Homo sapiens, UniProt Q13464). Kind of experiment: In-vitro inhibitory activity on recombinant human ROCK-1 (IMAP fluorescence polarisation, fluorescein-labelled peptide). It is filed as biochemical. The following applies: read-out: ROCK-I pIC50 (converted). Here is the method: In-Vitro Determination of Inhibitory Activity of Compounds of the Invention on Recombinant Human ROCK-1
Sequence of recombinant human ROCK-1 (Q13464 whole entry): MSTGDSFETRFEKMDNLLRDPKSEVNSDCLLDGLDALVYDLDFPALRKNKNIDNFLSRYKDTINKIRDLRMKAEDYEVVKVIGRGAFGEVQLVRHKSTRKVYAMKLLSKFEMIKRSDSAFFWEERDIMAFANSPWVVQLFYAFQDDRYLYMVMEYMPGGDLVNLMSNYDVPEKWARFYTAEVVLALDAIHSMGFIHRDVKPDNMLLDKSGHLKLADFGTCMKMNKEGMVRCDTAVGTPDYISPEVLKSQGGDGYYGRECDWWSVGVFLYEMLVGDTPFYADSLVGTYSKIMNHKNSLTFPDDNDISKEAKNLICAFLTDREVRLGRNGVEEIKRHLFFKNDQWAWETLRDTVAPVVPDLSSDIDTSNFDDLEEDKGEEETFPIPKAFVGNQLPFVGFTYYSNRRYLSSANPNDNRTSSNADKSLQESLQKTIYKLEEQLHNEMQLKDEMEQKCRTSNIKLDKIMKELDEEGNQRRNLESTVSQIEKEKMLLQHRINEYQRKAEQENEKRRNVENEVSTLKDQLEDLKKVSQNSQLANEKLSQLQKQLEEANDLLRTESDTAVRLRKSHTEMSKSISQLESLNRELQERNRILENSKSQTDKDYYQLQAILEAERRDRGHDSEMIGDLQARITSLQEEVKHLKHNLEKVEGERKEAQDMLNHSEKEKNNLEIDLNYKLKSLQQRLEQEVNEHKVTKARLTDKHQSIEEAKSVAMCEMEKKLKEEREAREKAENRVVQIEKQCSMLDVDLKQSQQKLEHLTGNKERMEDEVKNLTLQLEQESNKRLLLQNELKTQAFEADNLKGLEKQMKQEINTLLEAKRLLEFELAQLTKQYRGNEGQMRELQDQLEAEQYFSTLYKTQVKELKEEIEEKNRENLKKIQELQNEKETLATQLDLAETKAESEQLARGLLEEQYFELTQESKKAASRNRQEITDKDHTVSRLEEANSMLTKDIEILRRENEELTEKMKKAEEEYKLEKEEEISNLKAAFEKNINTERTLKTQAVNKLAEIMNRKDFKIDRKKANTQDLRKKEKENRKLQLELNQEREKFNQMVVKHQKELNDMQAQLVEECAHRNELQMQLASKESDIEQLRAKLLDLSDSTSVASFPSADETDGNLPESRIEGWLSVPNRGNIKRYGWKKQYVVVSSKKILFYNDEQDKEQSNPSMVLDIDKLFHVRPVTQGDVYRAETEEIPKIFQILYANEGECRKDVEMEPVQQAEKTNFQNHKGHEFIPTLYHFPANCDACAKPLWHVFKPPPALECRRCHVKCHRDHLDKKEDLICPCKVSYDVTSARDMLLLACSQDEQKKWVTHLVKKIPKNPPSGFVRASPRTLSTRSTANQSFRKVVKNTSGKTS
10 μl of a 0.1 ng/μl solution of recombinant human ROCK-1 in assay buffer containing 2 mM dithiothreitol, is then added to each well, yielding a final test compound concentration of 10 μM. Following a one hour incubation at room temperature in the dark, enzyme activity is detected by adding 60 μl of IMAP binding reagent (Molecular Devices) to each well.
Regarding `Nc1nccc2cc(OC3CCCN(Cc4ccc[nH]4)C3)ccc12` (stereo not drawn) [Example 7F, 6-[1-(1H-Pyrrol-2-ylmethyl)piperidin-3-yloxy]isoquinolin-1-ylamine], the IC50 is 126 nM.

As for `Nc1nccc2cc(OC3CCCN(Cc4cccs4)C3)ccc12` (stereo not drawn) [Example 7G, 6-(1-Thiophen-2-ylmethylpiperidin-3-yloxy)isoquinolin-1-ylamine], the IC50 was 251 nM.

For the compound `Cc1ccc(CN2CCC[C@H](Oc3ccc4c(N)nccc4c3)C2)cc1` [Example 8B, (S)-6-[1-(4-Methylbenzyl)piperidin-3-yloxy]isoquinolin-1-ylamine], the IC50 was 158 nM.

Consider `Nc1nccc2cc(SC3CCCNC3)ccc12` (stereo not drawn) [Example 12, 6-(Piperidin-3-ylsulfanyl)isoquinolin-1-ylamine], for which the IC50 is 501 nM.

For the compound `Nc1nccc2cc(S[C@H]3CCNC3)ccc12` [Example 13A, (S)-6-(Pyrrolidin-3-ylsulfanyl)isoquinolin-1-ylamine], the IC50 is 631 nM.

In the case of `Nc1nccc2cc(S[C@@H]3CCNC3)ccc12` [Example 13B, (R)-6-(Pyrrolidin-3-ylsulfanyl)isoquinolin-1-ylamine], the IC50 was 631 nM.

In the case of `Nc1nccc2cc(SC3CCNCC3)ccc12` [Example 13C, 6-(Piperidin-4-ylsulfanyl)isoquinolin-1-ylamine], the IC50 was 631 nM.

As to `Cc1cc2c(N)nccc2cc1OC1CCCN(Cc2ccccc2)C1` (stereo not drawn) [Example 19A], the IC50 was 794 nM.

As to `Nc1nccc2cc(OC3CCCN(CCOc4ccccc4)C3)ccc12` (stereo not drawn) [Example 21, 6-[1-(2-Phenoxyethyl)piperidin-3-yloxy]isoquinolin-1-ylamine], the IC50 was 200 nM.

For the compound `CC(c1ccccc1)N1CCC[C@H](Oc2ccc3c(N)nccc3c2)C1` (stereo partly drawn) [Example 21G, (S)-6-[1-(1-Phenylethyl)piperidin-3-yloxy]isoquinolin-1-ylamine], the IC50 is 200 nM.

For `COc1ccc(CN2CCCC(Oc3ccc4c(=O)[nH]ccc4c3)C2)cc1` (stereo not drawn) [Example 23D, 6-[1-(4-Methoxybenzyl)piperidin-3-yloxy]-2H-isoquinolin-1-one], the IC50 is 398 nM.

`O=c1[nH]ccc2cc(SC3CCNCC3)ccc12` [Example 25, 6-(Piperidin4-ylsulfanyl)-2H-isoquinolin-1-one]: the IC50 is 200 nM.

Turning to `O=c1[nH]cc(Br)c2cc(O[C@H]3CCCNC3)ccc12` [Example 29], the IC50 is 316 nM.

In the case of `O=c1[nH]ccc2cc(OC3CCN(Cc4ccco4)CC3)ccc12` [Example 30E, 6-(1-Furan-2-ylmethylpiperidin-4-yloxy)-2H-isoquinolin-1-one], the IC50 was 501 nM.

As to `CN1CCC(Oc2ccc3c(=O)[nH]ccc3c2)CC1` [Example 30G, 6-(1-Methylpiperidin-4-yloxy)-2H-isoquinolin-1-one], the IC50 is 631 nM.

Turning to `O=c1[nH]ccc2cc(OC3CCN(CCCO)CC3)ccc12` [Example 31C, 6-[1-(3-Hydroxypropyl)piperidin-4-yloxy]-2H-isoquinolin-1-one], the IC50 is 794 nM.

`O=c1[nH]ccc2cc(OC3CCN(CCO)CC3)ccc12` [Example 31E, 6-[1-(2-Hydroxyethyl)piperidin-4-yloxy]-2H-isoquinolin-1-one]: the IC50 was 794 nM.

`COc1cccc(CN2CCC(Oc3ccc4c(=O)[nH]ccc4c3)CC2)c1` [Example 31F, 6-[1-(3-Methoxybenzyl)piperidin-4-yloxy]-2H-isoquinolin-1-one]: the IC50 was 398 nM.

For the compound `O=c1[nH]ccc2cc(OC3CCN(Cc4ccc[nH]4)CC3)ccc12` [Example 31G, 6-[1-(1 H-Pyrrol-2-ylmethyl)piperidin-4-yloxy]-2H-isoquinolin-1-one], the IC50 is 316 nM.

For the compound `O=C(CN1CCC[C@H](Oc2ccc3c(=O)[nH]ccc3c2)C1)c1ccccc1` [Example 32B, (S)-6-[1-(2-Oxo-2-phenylethyl)piperidin-3-yloxy]-2H-isoquinolin-1-one], the IC50 is 501 nM.

Consider `O=c1[nH]ccc2cc(O[C@H]3CCCN(CCOc4ccccc4)C3)ccc12` [Example 32C, (S)-6-[1-(2-Phenoxyethyl)piperidin-3-yloxy]-2H-isoquinolin-1-one], for which the IC50 is 631 nM.

Consider `O=c1[nH]ccc2cc(O[C@@H]3CCCN(CCOc4ccccc4)C3)ccc12` [Example 32E, (R)-6-[1-(2-Phenoxyethyl)piperidin-3-yloxy]-2H-isoquinolin-1-one], for which the IC50 was 251 nM.

On to `O=c1[nH]ccc2cc(OC3CCCN(CC4CCCCC4)C3)ccc12` (stereo not drawn) [Example 33C, 6-(1-Cyclohexylmethylpiperidin-3-yloxy)-2H-isoquinolin-1-one], for which the IC50 was 501 nM.

The experiment is the same for the next values; noted with them: recombinant human ROCK-1, dose response curve; IC50 = concentration causing 50% inhibition of the enzymatic activity.
Regarding `Cc1ccc(CN2CCC(Oc3ccc4c(=O)[nH]ccc4c3)CC2)cc1` [Example 30A, 6-[1-(4-Methylbenzyl)piperidin-4-yloxy]-2H-isoquinolin-1-one], the “ROCK-I pIC50” value was 6.1.
